{"source": "patent US20240350522A1", "about": "“HYGROMYCIN A FOR TREATMENT OF DISEASES AND INFECTIONS” (FLIGHTPATH BIOSCIENCES, INC., priority 2021, published 2024)", "assay_type_in_all_cases": "cell-based", "key": {"[1]": {"test_system": "Parvimonas micra (ATCC 33270)", "assay": "MIC of Hyg A against P. micra", "details": "ATCC33270"}, "[2]": {"test_system": "Porphyromonas gingivalis (ATCC 33277)", "assay": "MIC of Hyg A against P. gingivalis (OD600, dark field microscopy)"}, "F. nucleatum fusiforme": {"test_system": "F. nucleatum fusiforme", "assay": "Kirby-Bauer diffusion assay", "details": "Fusobacterium nucleatum, mean (SEM), read-out: size of zone inhibition (mm); for zone of inhibition at 5 µg/disc: Hyg A 5 μg per disc; for zone of inhibition at 10 µg/disc: Hyg A 10 μg per disc; for zone of inhibition at 20 µg/disc: Hyg A 20 μg per disc; for zone of inhibition at 40 µg/disc: Hyg A 40 μg per disc", "method": "(§1) Three representatives of 6 subspecies of Fusobacterium nucleatum (F. nucleatum) for a total of 18 strains were tested in the experiment. The sub species and strains are described in Table 2.\n(§2) All strains were verified by 16S V3/V6 sequence analysis prior to use. The methods described herein were performed in an anaerobic chamber at 37° C. All media and plates were degassed prior to use.\n(§3) Hygromycin A (Hyg A) discs were prepared by solubilizing Hyg A in distilled water and sterile filtered. Clindamycin was used as a positive control. Defined amounts of hygromycin A (40, 20, 10 or 5 micrograms), clindamycin (2 micrograms) or sterile distilled water were absorbed onto Kirby-Bauer discs in a biosafety cabinet.\n(§4) An overnight culture was grown in Wilkins-Chalgren (WC) broth and back-diluted 1:10 in fresh broth. When an OD 600 reading reached 0.5, 300 μL of the log phase culture was plated onto WC agar plates. The plates were sectioned into quadrants and a Kirby-Bauer (KB) disc impregnated with a defined amount of hygromycin A was placed in each quadrant. Plates were prepared thus in triplicate and the four amounts of hygromycin A were 40, 20 10 and 5 micrograms. The same volume of culture was spread on fourth plate sectioned into six sections for three positive and three negative controls. KB discs with water served as negative controls and KB discs impregnated with 2 micrograms of clindamycin served as positive controls. […] Table 3, Table 4, Table 5, Table 6, Table 7, Table 8 show the mean size of zone inhibitions for each of the subspecies tested using increasing concentrations of hygromycin A where the standard error of mean is represented in parenthesis.\n(§5) The amount of hygromycin A was plotted against the size of the zone of inhibition for each strain tested."}, "F. nucleatum nucleatum": {"test_system": "F. nucleatum nucleatum", "assay": "Kirby-Bauer diffusion assay", "details": "Fusobacterium nucleatum, mean (SEM), read-out: size of zone inhibition (mm); for zone of inhibition at 5 µg/disc: Hyg A 5 μg per disc; for zone of inhibition at 10 µg/disc: Hyg A 10 μg per disc; for zone of inhibition at 20 µg/disc: Hyg A 20 μg per disc; for zone of inhibition at 40 µg/disc: Hyg A 40 μg per disc", "method": "as §1, §2, §3, §4, §5"}, "[3]": {"test_system": "F. nucleatum periodonticum", "assay": "Kirby-Bauer diffusion assay", "details": "Fusobacterium nucleatum, mean (SEM), read-out: size of zone inhibition (mm); for zone of inhibition at 5 µg/disc: Hyg A 5 μg per disc; for zone of inhibition at 10 µg/disc: Hyg A 10 μg per disc; for zone of inhibition at 20 µg/disc: Hyg A 20 μg per disc; for zone of inhibition at 40 µg/disc: Hyg A 40 μg per disc", "method": "as §1, §2, §3, §4, §5"}, "F. nucleatum polymorphum": {"test_system": "F. nucleatum polymorphum", "assay": "Kirby-Bauer diffusion assay", "details": "Fusobacterium nucleatum, strain 13_3C EAV005, mean (SEM), read-out: size of zone inhibition (mm)", "method": "as §1, §2, §3, §4, §5"}, "[4]": {"details": "strain 203C15, 42 mm = assigned maximum"}, "[5]": {"details": "strain 203L25, 42 mm = assigned maximum"}, "[6]": {"details": "strain 25586 (second column so headed)"}, "[7]": {"details": "strain 25586, 42 mm = assigned maximum"}}, "note": "Read-outs that look alike come from different tables or passages of the source.", "data": [{"compound": "CC(=O)[C@H]1O[C@@H](Oc2ccc(/C=C(\\C)C(=O)N[C@@H]3[C@H](O)[C@@H](O)[C@H]4OCO[C@H]4[C@@H]3O)cc2O)[C@@H](O)[C@@H]1O", "note": "[Hyg A, Hygromycin A]", "values": [{"measurement": "MIC", "setting": "[1]; Parvimonas micra ATCC 33270, read-out: MIC", "value": 2, "unit": "µg/mL"}, {"measurement": "MIC", "setting": "[1]; Parvimonas micra, P. micra 33270, experiment 1, read-out: MIC (μg/ml) 1", "value": 2, "unit": "µg/mL"}, {"measurement": "MIC", "setting": "[1]; Parvimonas micra, P. micra 33270, experiment 2, read-out: MIC (μg/ml) 2", "value": 2, "unit": "µg/mL"}, {"measurement": "MIC", "setting": "[2]; ATCC33277, P. gingivalis 33277, experiment 1, read-out: MIC (μg/ml) 1", "value": 5, "unit": "µg/mL"}, {"measurement": "MIC", "setting": "[2]; ATCC33277, P. gingivalis 33277, experiment 2, read-out: MIC (μg/ml) 2", "value": 5, "unit": "µg/mL"}, {"measurement": "zone of inhibition at 5 µg/disc", "setting": "F. nucleatum fusiforme; strain 203C15", "value": 18, "unit": "mm"}, {"measurement": "zone of inhibition at 10 µg/disc", "setting": "F. nucleatum fusiforme; strain 203C15", "value": 24, "unit": "mm"}, {"measurement": "zone of inhibition at 20 µg/disc", "setting": "F. nucleatum fusiforme; [4]", "value": 42, "unit": "mm"}, {"measurement": "zone of inhibition at 40 µg/disc", "setting": "F. nucleatum fusiforme; [4]", "value": 42, "unit": "mm"}, {"measurement": "zone of inhibition at 5 µg/disc", "setting": "F. nucleatum fusiforme; strain 203L25", "value": 25, "unit": "mm"}, {"measurement": "zone of inhibition at 10 µg/disc", "setting": "F. nucleatum fusiforme; strain 203L25", "value": 28.7, "unit": "mm"}, {"measurement": "zone of inhibition at 20 µg/disc", "setting": "F. nucleatum fusiforme; [5]", "value": 42, "unit": "mm"}, {"measurement": "zone of inhibition at 40 µg/disc", "setting": "F. nucleatum fusiforme; [5]", "value": 42, "unit": "mm"}, {"measurement": "zone of inhibition at 5 µg/disc", "setting": "F. nucleatum fusiforme; strain 203L30", "value": 22.3, "unit": "mm"}, {"measurement": "zone of inhibition at 10 µg/disc", "setting": "F. nucleatum fusiforme; strain 203L30", "value": 24.3, "unit": "mm"}, {"measurement": "zone of inhibition at 20 µg/disc", "setting": "F. nucleatum fusiforme; strain 203L30", "value": 28, "unit": "mm"}, {"measurement": "zone of inhibition at 40 µg/disc", "setting": "F. nucleatum fusiforme; strain 203L30", "value": 30, "unit": "mm"}, {"measurement": "zone of inhibition at 5 µg/disc", "setting": "F. nucleatum nucleatum; strain 203L34", "value": 24, "unit": "mm"}, {"measurement": "zone of inhibition at 10 µg/disc", "setting": "F. nucleatum nucleatum; strain 203L34", "value": 30, "unit": "mm"}, {"measurement": "zone of inhibition at 20 µg/disc", "setting": "F. nucleatum nucleatum; strain 203L34", "value": 39.7, "unit": "mm"}, {"measurement": "zone of inhibition at 40 µg/disc", "setting": "F. nucleatum nucleatum; strain 203L34, 42 mm = assigned maximum", "value": 42, "unit": "mm"}, {"measurement": "zone of inhibition at 5 µg/disc", "setting": "F. nucleatum nucleatum; strain 25586 (first column)", "value": 16, "unit": "mm"}, {"measurement": "zone of inhibition at 10 µg/disc", "setting": "F. nucleatum nucleatum; strain 25586 (first column)", "value": 20, "unit": "mm"}, {"measurement": "zone of inhibition at 5 µg/disc", "setting": "F. nucleatum nucleatum; [6]", "value": 25.7, "unit": "mm"}, {"measurement": "zone of inhibition at 10 µg/disc", "setting": "F. nucleatum nucleatum; [6]", "value": 30, "unit": "mm"}, {"measurement": "zone of inhibition at 20 µg/disc", "setting": "F. nucleatum nucleatum; [7]", "value": 42, "unit": "mm"}, {"measurement": "zone of inhibition at 20 µg/disc", "setting": "F. nucleatum nucleatum; strain 25586", "value": 26, "unit": "mm"}, {"measurement": "zone of inhibition at 40 µg/disc", "setting": "F. nucleatum nucleatum; [7]", "value": 42, "unit": "mm"}, {"measurement": "zone of inhibition at 40 µg/disc", "setting": "F. nucleatum nucleatum; strain 25586", "value": 30, "unit": "mm"}, {"measurement": "zone of inhibition at 5 µg/disc", "setting": "[3]; strain 2_1_31 EAV015", "value": 20.3, "unit": "mm"}, {"measurement": "zone of inhibition at 10 µg/disc", "setting": "[3]; strain 2_1_31 EAV015", "value": 23.3, "unit": "mm"}, {"measurement": "zone of inhibition at 20 µg/disc", "setting": "[3]; strain 2_1_31 EAV015", "value": 25.3, "unit": "mm"}, {"measurement": "zone of inhibition at 40 µg/disc", "setting": "[3]; strain 2_1_31 EAV015", "value": 30, "unit": "mm"}, {"measurement": "zone of inhibition at 5 µg/disc", "setting": "[3]; strain 3_1_7B", "value": 29.3, "unit": "mm"}, {"measurement": "zone of inhibition at 10 µg/disc", "setting": "[3]; strain 3_1_7B", "value": 34.3, "unit": "mm"}, {"measurement": "zone of inhibition at 20 µg/disc", "setting": "[3]; strain 3_1_7B", "value": 36, "unit": "mm"}, {"measurement": "zone of inhibition at 40 µg/disc", "setting": "[3]; strain 3_1_7B", "value": 40, "unit": "mm"}, {"measurement": "zone of inhibition at 5 µg/disc", "setting": "[3]; strain 209B32", "value": 22, "unit": "mm"}, {"measurement": "zone of inhibition at 10 µg/disc", "setting": "[3]; strain 209B32", "value": 25.7, "unit": "mm"}, {"measurement": "zone of inhibition at 20 µg/disc", "setting": "[3]; strain 209B32", "value": 30.7, "unit": "mm"}, {"measurement": "zone of inhibition at 40 µg/disc", "setting": "[3]; strain 209B32", "value": 35, "unit": "mm"}, {"measurement": "zone of inhibition at 5 µg/disc", "setting": "F. nucleatum polymorphum; Hyg A 5 μg per disc", "value": 16.7, "unit": "mm"}, {"measurement": "zone of inhibition at 10 µg/disc", "setting": "F. nucleatum polymorphum; Hyg A 10 μg per disc", "value": 20, "unit": "mm"}]}]}
